Data on six compounds can be found in patent US11370778B2, “Bis(pentahydroxyhexyl)amino substituted 2-{[(3-amino-pyrazin-2-yl)formamido]methyl}-1H-1,3-benzodiazol-3-ium derivatives as ENaC inhibitors for treating respiratory diseases” (ENTERPRISE THERAPEUTICS LIMITED, priority 2017, dated 2022).

Where a name gives a salt, the structure may show the parent alone.

This data set in a line: Bronchoalveolar lavage: compound levels in BAL after intratracheal administration. The data set is classed as in vivo. Conditions: bronchoalveolar lavage fluid (BAL), other: intratracheal, 0.1 mg/kg, rat, 0.1 mg/mL solution in 5% dextrose, 1 mL/Kg, lungs lavaged after 6 hours, LC/MS/MS. The protocol:
Example 9—Bronchoalveolar Lavage A 0.1 mg/mL solution of ENaC inhibitor in 5% dextrose was administered intratracheally to a rat weighing 225-250 g. A volume of 1 mL/Kg was used. After 6 hours, lungs were lavaged with 3×4 mL of sterile saline. A 1 mL aliquot was subsequently snap frozen. Lungs were excised, weighed and snap frozen. Compound levels in the BAL and lung tissue were subsequently determined using LC/MS/MS bioanalysis.
The compound `CCn1c(CNC(=O)c2nc(Cl)c(N)nc2N)[n+](CC)c2ccc(C(=O)N3CCC(N(C[C@H](O)[C@@H](O)[C@H](O)[C@H](O)CO)C[C@H](O)[C@@H](O)[C@H](O)[C@H](O)CO)CC3)cc21` [Example 1, 6-(4-{bis[(2S,3R,4R,5R)-2,3,4,5,6-pentahydroxyhexyl]amino}piperidine-1-carbonyl)-2-{[(3,5-diamino-6-chloropyrazin-2-yl)formamido]methyl}-1,3-diethyl-1H-1,3-benzodiazol-3-ium trifluoroacetic acid trifluoroacetate] came in with a concentration at 6 h of 222 ng/mL.

Consider `CCn1c(CNC(=O)c2nc(Cl)c(N)nc2N)[n+](CC)c2ccc(C(=O)N3CCC(CN(C[C@H](O)[C@@H](O)[C@H](O)[C@H](O)CO)C[C@H](O)[C@@H](O)[C@H](O)[C@H](O)CO)CC3)cc21` [Example 3, 6-[4-({bis[(2S,3R,4R,5R)-2,3,4,5,6-pentahydroxyhexyl]amino}methyl)piperidine-1-carbonyl]-2-{[(3,5-diamino-6-chloropyrazin-2-yl)formamido]methyl}-1,3-diethyl-1H-1,3-benzodiazol-3-ium trifluoroacetic acid trifluoroacetate], for which the concentration at 6 h came out at 210 ng/mL.

As to `CCn1c(CNC(=O)c2nc(Cl)c(N)nc2N)[n+](CC)c2ccc(C(=O)N3CC[C@@H](N(C[C@H](O)[C@@H](O)[C@H](O)[C@H](O)CO)C[C@H](O)[C@@H](O)[C@H](O)[C@H](O)CO)C3)cc21` [Example 4, 6-[(3R)-3-{bis[(2S,3R,4R,5R)-2,3,4,5,6-pentahydroxyhexyl]amino}pyrrolidine-1-carbonyl]-2-{[(3,5-diamino-6-chloropyrazin-2-yl)formamido]methyl}-1,3-diethyl-1H-1,3-benzodiazol-3-ium trifluoroacetic acid trifluoroacetate], the concentration at 6 h stood at 524 ng/mL.

For the compound `CCn1c(CNC(=O)c2nc(Cl)c(N)nc2N)[n+](CC)c2ccc(C(=O)NCCN(C[C@H](O)[C@@H](O)[C@H](O)[C@H](O)CO)C[C@H](O)[C@@H](O)[C@H](O)[C@H](O)CO)cc21` [Example 5, 6-[(2-{bis[(2S,3R,4R,5R)-2,3,4,5,6-pentahydroxyhexyl]amino}ethyl)carbamoyl]-2-{[(3,5-diamino-6-chloropyrazin-2-yl)formamido]methyl}-1,3-diethyl-1H-1,3-benzodiazol-3-ium trifluoroacetic acid trifluoroacetate], the concentration at 6 h was 471 ng/mL.

In the case of `CCn1c(CNC(=O)c2nc(Cl)c(N)nc2N)[n+](CC)c2ccc(C(=O)NCCOCCOCCOCCN(C[C@H](O)[C@@H](O)[C@H](O)[C@H](O)CO)C[C@H](O)[C@@H](O)[C@H](O)[C@H](O)CO)cc21` [Example 6, 2-{[(3,5-diamino-6-chloropyrazin-2-yl)formamido]methyl}-1,3-diethyl-6-{[(14S,15R,16R,17R)-14,15,16,17,18-pentahydroxy-12-[(2S,3R,4R,5R)-2,3,4,5,6-pentahydroxyhexyl]-3,6,9-trioxa-12-azaoctadecan-1-yl]carbamoyl}-1H-1,3-benzodiazol-3-ium trifluoroacetic acid trifluoroacetate], the concentration at 6 h was 251 ng/mL.

`CCn1c(CNC(=O)c2nc(Cl)c(N)nc2N)[n+](CC)c2ccc(C(=O)NCCc3ccc(-c4ccc(CCN(C[C@H](O)[C@@H](O)[C@H](O)[C@H](O)CO)C[C@H](O)[C@@H](O)[C@H](O)[C@H](O)CO)cc4)cc3)cc21` [Example 7, 6-({2-[4′-(2-{bis[(2S,3R,4R,5R)-2,3,4,5,6-pentahydroxyhexyl]amino}ethyl)-[1,1′-biphenyl]-4-yl]ethyl}carbamoyl)-2-{[(3,5-diamino-6-chloropyrazin-2-yl)formamido]methyl}-1,3-diethyl-1H-1,3-benzodiazol-3-ium trifluoroacetic acid trifluoroacetate] showed a concentration at 6 h of 645 ng/mL.
